The target of one experiment is T1, human NTPDase2 (Homo sapiens, UniProt Q9Y5L3).
T1 sequence (Q9Y5L3 1-495): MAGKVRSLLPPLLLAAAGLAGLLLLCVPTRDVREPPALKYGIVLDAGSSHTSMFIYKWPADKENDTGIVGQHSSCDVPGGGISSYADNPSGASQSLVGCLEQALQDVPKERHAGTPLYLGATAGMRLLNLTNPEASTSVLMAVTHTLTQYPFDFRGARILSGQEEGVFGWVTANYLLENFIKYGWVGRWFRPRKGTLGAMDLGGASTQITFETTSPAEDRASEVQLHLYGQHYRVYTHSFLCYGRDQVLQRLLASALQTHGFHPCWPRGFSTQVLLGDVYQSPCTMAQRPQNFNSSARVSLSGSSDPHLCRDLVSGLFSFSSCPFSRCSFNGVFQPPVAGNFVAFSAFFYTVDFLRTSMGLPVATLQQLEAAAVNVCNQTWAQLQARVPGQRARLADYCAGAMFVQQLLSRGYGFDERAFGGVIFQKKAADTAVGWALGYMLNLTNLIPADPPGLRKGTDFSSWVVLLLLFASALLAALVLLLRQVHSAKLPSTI
Description: NTPDase inhibition assay by capillary electrophoresis (CE), NTPDase2. Format: biochemical. The following applies: human NTPDase2; CE method; ATP 320 μM; Km 70 μM; read-out: NTPDase2 Ki [μM] ± SEM.

Another experiment has as its target rP2Y6 (Rattus norvegicus, UniProt Q63371). The experiment can be described thus: Inhibition of UDP binding at rP2Y6. The settings on record: read-out: rP2Y6 % inhibition of UDP binding at 100 μM, n = 3, mean ± SEM.
In another experiment the target is T2, human NTPDase3 (Homo sapiens, UniProt O75355).
T2 sequence (O75355 1-529): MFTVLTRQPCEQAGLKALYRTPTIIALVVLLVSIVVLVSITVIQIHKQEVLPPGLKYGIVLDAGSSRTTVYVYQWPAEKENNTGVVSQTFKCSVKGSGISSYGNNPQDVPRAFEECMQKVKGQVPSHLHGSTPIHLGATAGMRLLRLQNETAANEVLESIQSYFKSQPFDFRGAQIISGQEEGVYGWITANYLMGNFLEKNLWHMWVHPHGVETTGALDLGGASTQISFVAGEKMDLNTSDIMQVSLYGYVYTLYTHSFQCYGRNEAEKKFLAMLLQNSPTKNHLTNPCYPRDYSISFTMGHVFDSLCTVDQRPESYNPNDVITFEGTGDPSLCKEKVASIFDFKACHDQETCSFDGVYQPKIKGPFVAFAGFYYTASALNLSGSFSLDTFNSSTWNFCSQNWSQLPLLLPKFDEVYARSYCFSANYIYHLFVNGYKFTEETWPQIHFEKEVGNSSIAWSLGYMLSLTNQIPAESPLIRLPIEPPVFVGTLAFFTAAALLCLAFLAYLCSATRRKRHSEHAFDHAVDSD
The experiment can be described thus: NTPDase inhibition assay by capillary electrophoresis (CE), NTPDase3. Format: biochemical. The following applies: ATP 320 μM; for inhibition at 1000 µM: 1 mM compound; for Ki: CE method, Km 75 μM, read-out: NTPDase3 Ki [μM] ± SEM. On the procedure: (§1) The applied enzyme inhibition assay has been described (Iqbal J, Vollmayer P, Braun N, Zimmermann H, Müller C E. A capillary electrophoresis method for the characterization of ecto-nucleoside triphosphate diphosphohydrolases (NTPDases) and the analysis of inhibitors by in-capillary enzymatic microreaction. Purinergic Signalling 2005, 1, 349-358).
(§2) A. CE instrumentation: All experiments were carried out using a P/ACE MDQ capillary electrophoresis system (Beckman Instruments, Fullerton, Calif., USA) equipped with a UV detection system coupled with a diode-array detector (DAD). Data collection and peak area analysis were performed by the P/ACE MDQ software 32 KARAT obtained from Beckman Coulter. The capillary temperature was kept constant at 25° C. The temperature of the sample storing unit was also adjusted to 25° C. The electrophoretic separations were carried out using an eCAP polyacrylamide-coated fused-silica capillary [(30 cm (20 cm effective length)×50 μm internal diameter (I.D.)×360 μm outside diameter (O.D.), obtained from CS-Chromatographie (Langerwehe, Germany)]. The separation was performed using an applied current of −60 μA and a data acquisition rate of 8 Hz. Analytes were detected using direct UV absorbance at 210 nm. The capillary was conditioned by rinsing with water for 2 min and subsequently with buffer (phosphate 50 mM, pH 6.5) for 1 min. Sample injections were made at the cathodic side of the capillary.
(§3) B. NTPDase inhibition assay by capillary electrophoresis: Enzyme inhibition assays were carried out at 37° C. in a final volume of 100 μl. The reaction mixture contained 320 μM of ATP (substrate) in reaction buffer. The reaction buffer contained 140 mM NaCl, 5 mM KCl, 1 mM MgCl2, 2 mM CaCl2, and 10 mM Hepes, pH 7.4.
(§4) Different concentrations of inhibitors dissolved in DMSO or water (10 μl) were added and the reaction was initiated by the addition of 10 μl of the appropriately diluted recombinant or native human or rat NTPDase enzyme. […] The mixture (final volume 100 μl) was incubated for 15 min and terminated by heating at 99° C. for 4 min. Aliquots of the reaction mixture (50 μl) were then transferred to mini-CE vials and injected into the CE instrument under the conditions described above. 20 μM of UMP was used as internal standard. Inhibition of NTPDase was tested over a range of 6 to 8 concentrations of test compound spanning 3 orders of magnitude to determine K1 values. Each analysis was repeated two times (in triplicates) in two separate experiments. The Cheng-Prusoff equation was used to calculate the K1 values from the IC50 values, determined by the non-linear curve fitting program PRISM® 3.0 (GraphPad, San Diego, Calif., USA). In table 1K, values of selected compounds as inhibitors of human NTPDases are given.

Another experiment addresses hP2Y12 (Homo sapiens, UniProt Q9H244). Description: Inhibition of [3H]PSB-0413 binding at hP2Y12. The settings on record: mean ± SEM, read-out: hP2Y12 % Inhibition of [^3H]PSB-0413 Binding at 10 μM, n = 3. Here is the method: In table 2 inhibition data of selected examples at human P2Y receptor subtypes were collected. It can be seen that no compound was identified that inhibited P2Y receptors at high concentrations of 100 μM and 10 μM, respectively.

The next experiment has as its target T3, human NTPDase8 (Homo sapiens, UniProt Q5MY95).
T3 sequence (Q5MY95 1-495): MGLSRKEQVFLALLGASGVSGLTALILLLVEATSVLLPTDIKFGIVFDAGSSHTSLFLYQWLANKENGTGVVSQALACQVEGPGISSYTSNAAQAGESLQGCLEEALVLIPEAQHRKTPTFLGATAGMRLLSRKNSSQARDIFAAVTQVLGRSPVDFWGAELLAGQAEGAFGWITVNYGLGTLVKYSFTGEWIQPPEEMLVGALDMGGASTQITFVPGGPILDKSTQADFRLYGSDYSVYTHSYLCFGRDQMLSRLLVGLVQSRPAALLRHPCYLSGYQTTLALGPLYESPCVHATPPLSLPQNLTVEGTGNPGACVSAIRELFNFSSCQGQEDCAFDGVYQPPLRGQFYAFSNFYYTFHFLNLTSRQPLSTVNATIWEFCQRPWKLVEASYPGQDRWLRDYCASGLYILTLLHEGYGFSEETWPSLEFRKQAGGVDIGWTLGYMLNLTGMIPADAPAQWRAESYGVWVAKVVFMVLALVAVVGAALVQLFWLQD
The experiment can be described thus: NTPDase inhibition assay by capillary electrophoresis (CE), NTPDase8. Type of experiment: biochemical. The following applies: for Ki: read-out: NTPDase8 Ki [μM] ± SEM; for inhibition at 1000 µM: 1 mM compound. On the procedure:
as §1, §2, §3, §4

The target of a further experiment is T4, human NTPDase1 (Homo sapiens, UniProt P49961).
T4 sequence (P49961 1-510): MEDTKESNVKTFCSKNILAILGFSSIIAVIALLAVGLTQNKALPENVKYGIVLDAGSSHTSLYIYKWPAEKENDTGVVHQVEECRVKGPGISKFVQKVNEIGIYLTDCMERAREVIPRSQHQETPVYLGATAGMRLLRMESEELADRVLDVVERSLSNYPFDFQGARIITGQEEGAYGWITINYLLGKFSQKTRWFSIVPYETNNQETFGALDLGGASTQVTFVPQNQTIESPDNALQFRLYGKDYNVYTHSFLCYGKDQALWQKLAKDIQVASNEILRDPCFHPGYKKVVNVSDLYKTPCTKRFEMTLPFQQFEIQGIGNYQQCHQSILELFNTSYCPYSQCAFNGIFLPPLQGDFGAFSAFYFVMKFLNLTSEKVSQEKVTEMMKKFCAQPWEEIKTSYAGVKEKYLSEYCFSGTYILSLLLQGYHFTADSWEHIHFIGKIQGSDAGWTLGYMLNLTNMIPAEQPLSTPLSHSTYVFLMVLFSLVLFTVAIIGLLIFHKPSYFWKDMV
Description: NTPDase inhibition assay by capillary electrophoresis (CE), NTPDase1. Type of experiment: biochemical. The settings on record: ATP 320 μM; for Ki: CE method, Km 17 μM, read-out: NTPDase1 Ki [μM] ± SEM; for inhibition at 1000 µM: 1 mM compound. On the procedure:
as §1, §2, §3, §4

Where two headings read alike, the source gives them in different places.

Sequence of rP2Y6 (Q63371 whole entry): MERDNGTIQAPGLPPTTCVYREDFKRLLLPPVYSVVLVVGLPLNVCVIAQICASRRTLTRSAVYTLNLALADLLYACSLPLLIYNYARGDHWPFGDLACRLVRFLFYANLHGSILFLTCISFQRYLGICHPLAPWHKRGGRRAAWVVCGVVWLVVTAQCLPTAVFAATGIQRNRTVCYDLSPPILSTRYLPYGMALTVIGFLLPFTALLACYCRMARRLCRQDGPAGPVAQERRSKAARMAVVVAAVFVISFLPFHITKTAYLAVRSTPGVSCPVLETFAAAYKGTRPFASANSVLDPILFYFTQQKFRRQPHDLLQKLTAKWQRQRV
Sequence of hP2Y12 (Q9H244 whole entry): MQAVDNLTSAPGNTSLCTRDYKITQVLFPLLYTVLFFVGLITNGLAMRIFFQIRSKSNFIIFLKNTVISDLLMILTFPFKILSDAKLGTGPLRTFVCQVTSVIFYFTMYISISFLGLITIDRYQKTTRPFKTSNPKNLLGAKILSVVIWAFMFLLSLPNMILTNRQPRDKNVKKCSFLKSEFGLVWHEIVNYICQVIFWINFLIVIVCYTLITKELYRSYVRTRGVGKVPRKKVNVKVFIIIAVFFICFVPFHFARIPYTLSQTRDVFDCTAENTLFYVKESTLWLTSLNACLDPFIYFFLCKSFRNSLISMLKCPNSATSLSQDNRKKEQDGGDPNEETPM

`CCOP(=O)(Cc1ccc(NC(=O)CCCNC(=O)[C@H]2O[C@@H](n3ccc(=O)[nH]c3=O)C(O)C2O)cc1)OCC` (stereo in doubt) [Compound 4, 4-[4-((2S,3R,4S,5R)-5-(2,4-Dioxo-3,4-dihydropyrimidin-1(2H)-yl)-3,4-dihydroxy-tetrahydrofurane-2-carboxamido)butaneamido]benzylphosphonic acid diethylester]: the Ki at human NTPDase2 is 210 ± 25.3 µM; at human NTPDase3 it was more than 200 µM; on human NTPDase8 (human NTPDase8, CE method, ATP 320 μM, Km 46 μM), 242 ± 39.3 µM; on human NTPDase1, 182 ± 24.3 µM. In addition, at rP2Y6, the inhibition at 100 µM is -8 ± 11%. For the same compound, on human NTPDase3, the inhibition at 1000 µM worked out at 48%. In addition, the inhibition at 10 µM on hP2Y12 amounted to 6 ± 4%.
With `CCOP(=O)(CNC(=O)CNC(=O)[C@H]1O[C@@H](n2ccc(=O)[nH]c2=O)C(O)C1O)OCC` (stereo in doubt) [Compound 5, 2-[(2S,3R,4S,5R)-5-(2,4-Dioxo-3,4-dihydropyrimidin-1(2H)-yl)-3,4-dihydroxy-tetrahydrofurane-2-carboxamido]ethaneamidomethylphosphonic acid diethylester], the Ki on human NTPDase2 was 71.7 ± 13.5 µM; at human NTPDase3, more than 200 µM; on human NTPDase8, more than 100 µM; at human NTPDase1, 786 ± 33 µM. Also, on rP2Y6, the inhibition at 100 µM stood at 17 ± 16%. Besides, the inhibition at 1000 µM at human NTPDase3 is 0%; at human NTPDase8 (human NTPDase8, ATP 320 μM), 0%. Besides, the inhibition at 10 µM at hP2Y12 worked out at 31 ± 1%.
As to `CCOP(=O)(CNC(=O)CCCNC(=O)[C@H]1O[C@@H](n2ccc(=O)[nH]c2=O)C(O)C1O)OCC` (stereo in doubt) [Compound 7, 4-[(2S,3R,4S,5R)-5-(2,4-Dioxo-3,4-dihydropyrimidin-1(2H)-yl)-3,4-dihydroxy-tetrahydrofurane-2-carboxamido]butaneamidomethylphosphonic acid diethylester], the Ki on human NTPDase2 was 29.2 ± 2.7 µM; on human NTPDase3 it was more than 200 µM; on human NTPDase8, more than 100 µM; on human NTPDase1, more than 50 µM. The inhibition at 100 µM on rP2Y6 was -3 ± 11%. In addition, the inhibition at 1000 µM came out at 0% on human NTPDase3; 0% against human NTPDase8 (human NTPDase8, ATP 320 μM); 45% against human NTPDase1. In addition, the inhibition at 10 µM on hP2Y12 worked out at 2 ± 8%.
As for `CCOP(=O)(CCNC(=O)CNC(=O)[C@H]1O[C@@H](n2ccc(=O)[nH]c2=O)C(O)C1O)OCC` (stereo in doubt) [Compound 8, 2-[2-((2S,3R,4S,5R)-5-(2,4-Dioxo-3,4-dihydropyrimidin-1(2H)-yl)-3,4-dihydroxy-tetrahydrofurane-2-carboxamido)ethaneamido]ethylphosphonic acid diethylester], the Ki is 116 ± 24 µM on human NTPDase2, more than 200 µM on human NTPDase3, more than 100 µM on human NTPDase8 and more than 50 µM on human NTPDase1. The inhibition at 100 µM at rP2Y6 was 9 ± 13%. Besides, the inhibition at 1000 µM came to 22% against human NTPDase3; 0% against human NTPDase8 (human NTPDase8, ATP 320 μM); 0% at human NTPDase1. In addition, the inhibition at 10 µM on hP2Y12 turned out to be 2 ± 3%.
`CCOP(=O)(CNC(=O)CCNC(=O)[C@H]1O[C@@H](n2ccc(=O)[nH]c2=O)[C@H](O)[C@@H]1O)OCC` [Compound 6, 3-[(2S,3R,4S,5R)-5-(2,4-Dioxo-3,4-dihydropyrimidin-1(2H)-yl)-3,4-dihydroxy-tetrahydrofurane-2-carboxamido]pronaneamidomethylphosphonic acid diethylester]: the Ki on human NTPDase2 is 167 ± 21 µM; at human NTPDase3, more than 200 µM; on human NTPDase8, more than 100 µM; on human NTPDase1, more than 50 µM. For the same compound, the inhibition at 100 µM at rP2Y6 is -3 ± 2%. The inhibition at 1000 µM against human NTPDase3 worked out at 0%; at human NTPDase8 (human NTPDase8, ATP 320 μM), 0%; against human NTPDase1, 0%. The inhibition at 10 µM at hP2Y12 worked out at 7 ± 5%.

By Ki is commonly meant a dissociation constant, usually derived from enzyme kinetics or from competition with a known ligand. As a reminder, the inhibition is the change of the read-out against control, counted positive when it falls.
